Data from patent publication US20120136033A1, “Small Molecule Antagonists of Phosphatidylinositol-3,4,5-Triphosphate (PIP3) and Uses Thereof” (President and Fellows of Harvard College, priority 2009, published 2012).
pIC50: −log10 of the molar value.

Columns and labels:
[1] = molecular target: T1, R86A mutant of the Akt PH domain (Homo sapiens, UniProt P31749, R86A); experiment: NMR HSQC, R86A mutant of the PH domain; format: binding
T1 construct: Human Akt PH domain a.a; 1-123; His6 (N); made in house; host or cells: E. coli BL21(DE3)

PH123 (Akt PH domain) = molecular target: T2, PH123 (Akt PH domain) (Homo sapiens, UniProt P31749); experiment: lipid overlay assay of PIP3/PH123 binding
T2 construct: recombinant 1-123 amino acid N-terminal fragment of human Akt1; made in house; host or cells: E. coli BL21(DE3)

[2] = test system: differentiated HL-60 cells; experiment: fMLP-stimulated HL-60 cell polarization; format: cell-based; conditions: 100 μM, 2 hr
Procedure: In another set of experiments, the ability of PITs to inhibit fMLP-stimulated HL-60 cell polarization was examined. Differentiated HL-60 cells were treated with PIT-1, PIT-2, PIT-1i-1, or PIT-1i-2, each at 100 μM for 2 hr, followed by stimulation with 100 nM fMLP for 3 min. Actin was stained and analyzed using fluorescent microscopy. The number of the polarized cells was counted in five random fields.

rat aortic rings = experiment: rat aortic ring microvessel outgrowth assay; format: cell-based; conditions: 144 h; rat aortic rings in matrigel, 6 days, 3.125-100 μM; read-out: IC50, microvessel outgrowth in aortic ring sprouting
Procedure: For the aortic ring assay, aortas were isolated from 6-week old Sprague-Dawley rats and immediately transferred to a culture dish with serum-free medium. The fibroadipose tissue around the aortas was carefully removed and the aortas were cut into 1-mm long aortic ring fragments. After three consecutive washes in serum-free medium, the aortic rings were embedded into 70 μl Matrigel in 96-well plate and fed with 100 μl of serum-free M199 medium with or without PIT-1 at different concentrations (3.125-100 μM). The medium was replaced every 24 hr. Phase-contrast images were obtained on day 6, and the numbers of microvessel outgrowths per ring were counted.
Microvessel growth from rat aorta sections is the result of a combination of endothelial cell proliferation, migration, and tube formation, and thus provides a close approximation of in vivo angiogenesis. For this experiment the rat aortic rings were embedded in matrigel and then were treated with PIT-1 (3.125-100 μM) for 6 days, followed by counting the number of microvessel outgrowths under microscope.

PLC-δ PH domain = molecular target: T3, PLC-δ PH domain (Homo sapiens, UniProt P51178); experiment: PH domain translocation assay, GFP-fused PLC-δ PH domain; format: cell-based
T3 construct: 100 nM PLC-δ PH domain
T3 sequence (P51178 21-130 limits assumed): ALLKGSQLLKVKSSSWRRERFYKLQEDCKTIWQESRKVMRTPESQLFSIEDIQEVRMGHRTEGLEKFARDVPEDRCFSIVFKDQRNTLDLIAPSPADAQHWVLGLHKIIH
Procedure: Cells were transfected with the corresponding GFP-fusion vectors, serum starved overnight, and incubated with 100 μM PITs or PIT-1is for 2 hr, followed by stimulation with 100 ng/ml PDGF or 250 ng/ml PMA for 5 min. The translocation was analyzed using fluorescent microscope and was quantitated by counting the number of cells with translocated PH domains in five random fields.
In contrast, no inhibitory effect was observed on the cellular localization of PLC-δ PH domain, which is specific for PIP2.

U87MG cells = experiment: sensitization of U87MG cells to killing by TRAIL, ATP assay; format: cell-based, human; conditions: 50 μM PITs or 10 μM Akt inhibitor VIII, 10 ng/ml TRAIL, 48 hr
Procedure: FIG. 10 is a bar graph depicting that PITs, as well as Akt inhibitor VIII, sensitize U87MG cells to killing by TRAIL. U87MG cells were incubated with 50 μM PIT-1, PIT-2, PIT-1i-1 or 10 μM Akt inhibitor VIII in the presence or absence of 10 ng/ml TRAIL for 48 hr, followed by cell viability analysis using ATP assay.
Based on the critical role of PIP3-dependent Akt signaling in the regulation of cell survival, the effect of PIT-1 on the cancer cell viability was tested. Cancer cells were seeded into 96-well plates (white plates for ATP assay; black plates for fluorescent assay; clear plates for MTS assay) at the density of 5-10×10^3 cells per well in 100 μl of the appropriate media. […] For the ATP assay, a luminescence-based commercial kit (CellTiter-Glo, Promega, Madison, Wis.) was used. Thirty microliters of cell lysis/ATP detection reagent was added to each well, mixed for 10 min at room temperature, and the luminescence was measured using a Wallac Victor 3 plate reader (Perkin-Elmer, Wellesley, Mass.). […] Twenty microliters of the combined MTS/PMS solution was added into each well, incubated for 4 hr at 37° C., and the absorbance at 490 nm was measured using a Wallac Victor 3 plate reader. […] Next, 5 μl of 20% (v/v) Triton X-100 solution was added to each well and incubated for 1 hr at 37° C., and the signal was measured again. […]

caspase-3 = experiment: Western blot of caspase-3 cleavage and PARP processing; format: cell-based
Description: Since PI3K/PIP3/Akt signaling plays a critical role in the inhibition of apoptosis (Datta S R et al. (1999) Genes Dev 13:2905-27), the possibility that PITs induce apoptosis was examined. […] Proapoptotic Bcl-2 family members Bax and Bak are important mediators of apoptosis. Wei M C et al. (2001) Science 292:727-30. […] Non-apoptotic mechanisms of cell death may also play some additional, albeit less important, role in PIT-induced killing, as some cell death was still observed in Bax/Bak-deficient cells and in the presence of zVAD.fmk.

Bcl-xL = Bcl-xL (Homo sapiens, UniProt Q07817); experiment: NMR HSQC specificity control, Bcl-xL; format: binding
[3] = stability in dimethylsulfoxide; format: physicochemical

T1 sequence (P31749 1-123 R86A): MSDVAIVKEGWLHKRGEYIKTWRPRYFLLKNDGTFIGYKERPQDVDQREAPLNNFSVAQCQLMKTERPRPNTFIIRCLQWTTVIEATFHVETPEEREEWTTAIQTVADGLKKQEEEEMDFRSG
Sequence of Bcl-xL (Q07817 whole entry, species assumed): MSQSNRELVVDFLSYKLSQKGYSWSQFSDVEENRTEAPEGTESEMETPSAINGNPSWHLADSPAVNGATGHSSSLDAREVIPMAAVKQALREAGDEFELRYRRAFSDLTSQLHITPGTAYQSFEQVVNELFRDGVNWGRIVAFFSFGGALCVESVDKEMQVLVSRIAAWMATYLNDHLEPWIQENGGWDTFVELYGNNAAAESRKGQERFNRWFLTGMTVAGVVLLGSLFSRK
T2 sequence (P31749 1-123): as the sequence (P31749 1-123 R86A) above, with A86R counted along it

O=C(NC(=S)Nc1cc([N+](=O)[O-])cc(Cl)c1O)c1ccccc1 [PIT-1]
effect on HSQC of R86A mutant PH domain [1]: had no effect
effect on PIP3/PH123 binding, lipid overlay (PH123 (Akt PH domain)): concentration-dependent inhibitory effect
fMLP-stimulated polarization of differentiated HL-60 neutrophils [2]: efficient inhibition
pIC50 (rat aortic rings): 5.34
effect on PLC-δ PH domain localization / PIP2/PH domain binding in cells (PLC-δ PH domain): does not disrupt
sensitization of U87MG cells to killing by TRAIL (U87MG cells): substantially sensitized
cleavage/activation of caspase-3 and processing of PARP (caspase-3): induced the cleavage/activation
changes in HSQC spectrum of Bcl-xL (Bcl-xL): did not elicit any changes

O=C1NC(=S)S/C1=C\c1cc(O)c([N+](=O)[O-])cc1Cc1ccccc1 [PIT-2]
stability in dimethylsulfoxide (DMSO) [3]: limited stability
